Measured values taken from US20260023004A1, “SIGNAL ENHANCEMENT OF RESONANT SENSOR FOR CELL MEASUREMENTS” (lowa State University Research Foundation, Inc., priority 2022, published 2026).

System: HeLa cells
Assay: Inhibition of HeLa cell growth monitored by resonant sensor frequency shift and microscope images
Format: cell-based
Details: Niclosamide at 15 μM in culture media
Procedure: To investigate the inhibition effect of cell growth on the sensor response, HeLa cells were first grown until a drastic resonant frequency shift was observed. FIG. 11 is a plot of resonant frequency as a function of time shown as curve 537. Four times are identified as 5, 6, 7, and 8. FIG. 12 is a cell image at time 5 of FIG. 11. Niclosamide was introduced at time 6 of FIG. 11 into the culture media at 15 μM. […] FIG. 13 is a cell image at time 6 of FIG. 11. FIG. 14 is a cell image at time 7 of FIG. 11. FIG. 15 is a cell image at time 8 of FIG. 11.

O=C(Nc1ccc([N+](=O)[O-])cc1Cl)c1cc(Cl)ccc1O [Niclosamide]
resonant frequency shift of sensor after introducing drug (HeLa cells grown until drastic resonant frequency shift): almost an instantaneous stop in the resonant frequency shift | cell growth after introducing the drug (microscopic images) (HeLa cells): stop of cell growth
